Reference: patent publication US10702528B2, “Hepatitis B antiviral agents” (Enanta Pharmaceuticals, Inc., priority 2015, dated 2020)

Experiments:
HBV = test: HepAD38 antiviral screen: reduction of viral product accumulation (virion DNA by qPCR; HBsAg/HBeAg ELISA); assay type: cell-based; details: Hepatitis B virus, 120 h; HepAD38 cells, harvest five days after compound addition; reduction of viral product accumulation relative to no drug controls; read-out: HepAD38 EC50
Description: (§1) Methods: HepAD38 cells are maintained as previously reported (Ladner et al, Antimicrob. Agents Chemother. 1997, […], 1715). Briefly, cells are passaged upon attaining confluency in DMEM/F12 media in the presence of 10% FBS, Penn/Strep, 250 μg/mL G418, and 1 μg/ml tetracycline. Novel compounds are screened by first washing cells three times with PBS to remove tetracycline, and plating in 96 well plates at 35,000 cells/well. Compounds dissolved in DMSO are then diluted 1:200 into wells containing cells. Five days after compound addition, material is harvested for analysis. For an extended 8 day analysis, cells are plated and treated as described above, but media and compound are refreshed on d2 and d5 post initial treatment.
On harvest day, virion DNA is obtained by lysing with Sidestep Lysis and Stabilization Buffer and then quantified via quantitative real time PCR. Commercially available ELISA kits are used to quantitate the viral proteins HBsAg (Alpco) or HbeAg (US Biological) by following the manufacturer's recommended protocol after diluting samples to match the linear range of their respective assays. Irrespective of readout, compound concentrations that reduce viral product accumulation in the cell lysates or supernatants by relative to no drug controls (EC50) are reported; EC50 ranges are as follows: A<1 μM; B 1-10 μM; C>10 μM.

[1] = Compound toxicity by ATPlite 1 Step (total ATP levels) in HepAD38 cells; assay type: cell-based; details: human, day of harvest, concentration reducing total ATP levels by 50% relative to no drug controls
Description: as §1
Additionally, on day of harvest, compound toxicity is evaluated by treating cells with ATPlite 1 Step according to the manufacturer's protocol. Compound concentrations that reduce total ATP levels in wells by 50% relative to no drug controls (CC50) are reported; CC50 ranges are as follows: A>30 μM; B 10-30 μM; C<10 μM.

SMILES	EC50 (HBV)	CC50 [1]
CC1=C(c2ccn(C)n2)C(C)(c2ccc(F)cc2Cl)N=C(c2nccs2)N1 (stereo not drawn) [Example 48]	> 10000 nM	
CC1=C(c2ccn(C)n2)[C@H](c2ccc(F)cc2Cl)N=C(c2nccs2)N1 (single isomer, unassigned) [Example 16b]	< 1000 nM	> 30 µM
CC1=C(C(=O)N(C)S(C)(=O)=O)C(c2ccc(F)cc2Cl)N=C(c2nccs2)N1 (racemic) [Example 22]	> 10000 nM	> 30 µM
CCOC(=O)C1=CNC(c2nccs2)=NC1(C)c1ccc(F)cc1 (stereo not drawn) [Example 49]	1000 to 10000 nM	
COC(=O)[C@@H]1CCC[C@H]1N1C[C@@H]2CN(CC3=C(c4ccn(C)n4)[C@H](c4ccc(F)cc4Cl)N=C(c4nccs4)N3)CCN2C1=O [Example 55]	1000 to 10000 nM	
C=CC1=C(C)NC(c2nccs2)=NC1c1ccc(F)cc1Cl (racemic) [Example 12]	< 1000 nM	> 30 µM
Cn1ccc(C2=CNC(c3nccs3)=NC2(C)c2ccc(F)cc2)n1 (stereo not drawn) [Example 50]	1000 to 10000 nM	
CC1=C(CN(C)C)C(c2ccc(F)cc2Cl)N=C(c2nccs2)N1 (racemic) [Example 8]	> 10000 nM	> 30 µM
Cn1ccc(C2=C(CN3C4CCC3COC4)NC(c3nccs3)=N[C@H]2c2ccc(F)cc2Cl)n1 [Example 52]	< 1000 nM	
CC1=C(c2ccccc2)C(c2ccc(F)cc2Cl)N=C(c2nccs2)N1 (racemic) [Example 18]	< 1000 nM	10 to 30 µM
CCOC(=O)C1=C(CC2CCC[C@H]2C(=O)O)NC(c2nccs2)=NC1C1CCCCC1 (stereo partly drawn) [Example 6]	> 10000 nM	> 30 µM
CC1=C(c2ccn(C)n2)[C@@H](c2ccc(F)cc2Cl)N=C(c2nccs2)N1 (single isomer, unassigned) [Example 16a]	< 1000 nM	> 30 µM
CCOC(=O)C1=CNC(c2nccs2)=NC1(C)c1ccc(F)cc1Cl (stereo not drawn) [Example 57]	1000 to 10000 nM	
CCOC(=O)[C@@H]1CC(F)(F)CC1CC1=C(C#N)C(c2ccc(F)cc2Cl)N=C(c2nccs2)N1 (stereo partly drawn) [Example 5]	1000 to 10000 nM	> 30 µM
CCOC(=O)[C@@H]1CC(F)(F)CN1CC1=C(C(=O)NS(C)(=O)=O)C(c2ccc(F)cc2Cl)N=C(c2nccs2)N1 (stereo partly drawn) [Example 4]	> 10000 nM	> 30 µM
Cn1ccc(C2=C(CF)NC(c3nccs3)=NC2c2ccc(F)cc2Cl)n1 (stereo not drawn) [Example 43]	< 1000 nM	> 30 µM
CC1=C(c2nn[nH]n2)C(c2ccc(F)cc2Cl)N=C(c2nccs2)N1 (stereo not drawn) [Example 27]	> 10000 nM	> 30 µM
CC1=C(c2nccn2C)C(c2ccc(F)cc2Cl)N=C(c2nccs2)N1 (stereo not drawn) [Example 33]	1000 to 10000 nM	> 30 µM
CC1=C(c2ncccn2)C(c2ccc(F)cc2Cl)N=C(c2nccs2)N1 (racemic) [Example 20]	1000 to 10000 nM	> 30 µM
CCOC(=O)C1=C(CC2CC(F)(F)C[C@H]2C(=O)O)NC(c2nccs2)=NC1C1CCCC1 (stereo partly drawn) [Example 7]	1000 to 10000 nM	> 30 µM
CCOC(=O)C1=C(CN2CCC[C@H]2C(=O)NS(C)(=O)=O)NC(c2nccs2)=NC1c1ccc(F)cc1Cl (stereo partly drawn) [Example 1]	1000 to 10000 nM	10 to 30 µM
Cn1ccc(C2=C(CC#N)NC(c3nccs3)=NC2c2ccc(F)cc2Cl)n1 (stereo not drawn) [Example 40]	1000 to 10000 nM	> 30 µM
Cn1ccc(C2=C(CN3CC(F)(F)C[C@H]3C(=O)O)NC(c3nccs3)=NC2c2ccc(F)cc2Cl)n1 (stereo partly drawn) [Example 38]	< 1000 nM	> 30 µM
CC1=C(CO)C(c2ccc(F)cc2Cl)N=C(c2nccs2)N1 (racemic) [Example 9]	1000 to 10000 nM	> 30 µM
CC1=C(c2ncco2)C(c2ccc(F)cc2Cl)N=C(c2nccs2)N1 (racemic) [Example 13]	< 1000 nM	> 30 µM
Cn1ccc(C2=C(CN3C4CCC3CC(O)C4)NC(c3nccs3)=N[C@H]2c2ccc(F)cc2Cl)n1 (stereo partly drawn) [Example 54]	1000 to 10000 nM	
COC(=O)CC1=C(c2ccn(C)n2)C(c2ccc(F)cc2Cl)N=C(c2nccs2)N1 (stereo not drawn) [Example 44]	1000 to 10000 nM	> 30 µM
Cn1ccc(C2=CNC(c3nccs3)=NC2c2ccc(F)cc2Cl)n1 (stereo not drawn) [Example 36]	< 1000 nM	> 30 µM
CC1=C(c2nccs2)C(c2ccc(F)cc2Cl)N=C(c2nccs2)N1 (racemic) [Example 14]	< 1000 nM	> 30 µM
